Source: patent US11051515B2, “3-acyl-benzamides and their use as herbicides” (Bayer Aktiengesellschaft, priority 2017, dated 2021)

Columns and labels:
[1] = system: VIOTR; assay: Pre-emergence action against VIOTR; assay type: in vivo, Viola tricolor; conditions: Dosage 320 g/ha, pre-emergence
Summary of the method: (§1)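 Seeds sown in sandy loam in wood-fiber pots and covered with soil. Greenhouse growth; visual damage scored after 3 weeks versus untreated controls (100% = dead, 0% = like control).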

[2] = system: ECHCG; assay: Pre-emergence action against ECHCG; assay type: in vivo, Echinochloa crus-galli; conditions: pre-emergence, dosage 320 g/ha, scored visually after 3 weeks vs untreated controls
Summary of the method: as §1

[3] = system: HORMU; assay: Pre-emergence action against HORMU; assay type: in vivo, Hordeum murinum; conditions: Dosage 320 g/ha
Text: (§2) Seeds of monocotyledonous and dicotyledonous weed plants and crop plants are laid out in sandy loam soil in wood-fiber pots and covered with soil. The compounds of the invention, formulated in the form of wettable powders (WP) or as emulsion concentrates (EC), are then applied to the surface of the covering soil in the form of an aqueous suspension or emulsion at a water application rate equating to […], with addition of 0.2% wetting agent. After the treatment, the pots are placed in a greenhouse and kept under good growth conditions for the trial plants. The damage to the test plants is scored visually after a test period of 3 weeks by comparison with untreated controls (herbicidal activity in percent (%): 100% activity=the plants have died, 0% activity=like control plants).

[4] = system: AMARE; assay: Pre-emergence action against AMARE; assay type: in vivo, Amaranthus retroflexus; conditions: pre-emergence, dosage 320 g/ha, scored visually after 3 weeks vs untreated controls
Summary of the method: as §1

[5] = system: ABUTH; assay: Pre-emergence action against ABUTH; assay type: in vivo, Abutilon theophrasti; conditions: pre-emergence, dosage 320 g/ha, scored visually after 3 weeks vs untreated controls
Summary of the method: as §1

[6] = system: ALOMY; assay: Pre-emergence action against ALOMY; assay type: in vivo, Alopecurus myosuroides; conditions: dosage 320 g/ha, pre-emergence, scored visually after 3 weeks vs untreated controls, 100% = plants have died, 0% = like control plants
Summary of the method: as §1

[7] = system: SETVI; assay: Pre-emergence action against SETVI; assay type: in vivo, Setaria viridis; conditions: pre-emergence, dosage 320 g/ha, scored visually after 3 weeks vs untreated controls
Summary of the method: as §1

[8] = system: ECHCG; assay: Post-emergence action against ECHCG; assay type: in vivo, Echinochloa crus-galli; conditions: post-emergence, dosage 80 g/ha, visual assessment about 3 weeks after treatment vs untreated controls
Summary of the method: (§3)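 Weeds grown in sandy loam in greenhouse, treated at one-leaf stage (2–3 weeks after sowing) with WP or EC formulations sprayed as aqueous suspension/emulsion at 600 to […] water with 0.2% wetting agent. Visual rating after about 3 weeks versus untreated controls, as % herbicidal action (100% = plants dead, 0% = like control).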

[9] = system: VIOTR; assay: Post-emergence action against VIOTR; assay type: in vivo, Viola tricolor; conditions: Viola tricolor, 504 h; post-emergence, dosage 80 g/ha
Summary of the method: as §3

[10] = system: VERPE; assay: Post-emergence action against VERPE; assay type: in vivo, Veronica persica; conditions: Veronica persica, 504 h, dosage 80 g/ha
Summary of the method: as §3

[11] = system: PHBPU; assay: Post-emergence action against PHBPU; assay type: in vivo, Pharbitis purpurea; conditions: post-emergence, dosage 80 g/ha
Summary of the method: as §3

[12] = system: PHBPU; assay: Pre-emergence action against PHBPU; assay type: in vivo, Pharbitis purpurea; conditions: Ipomoea purpurea, 504 h; Dosage 320 g/ha, pre-emergence
Summary of the method: as §1

[13] = system: STEME; assay: Pre-emergence action against STEME; assay type: in vivo, Stellaria media; conditions: Dosage 320 g/ha, pre-emergence
Summary of the method: as §1

[14] = system: MATIN; assay: Pre-emergence action against MATIN; assay type: in vivo, Matricaria inodora; conditions: Dosage 320 g/ha, pre-emergence
Summary of the method: as §1

[15] = system: AVEFA; assay: Pre-emergence action against AVEFA; assay type: in vivo, Avena fatua; conditions: dosage 320 g/ha, scored visually after 3 weeks vs untreated controls
Summary of the method: as §1

[16] = system: VERPE; assay: Pre-emergence action against VERPE; assay type: in vivo, Veronica persica; conditions: Dosage 320 g/ha, pre-emergence
Summary of the method: as §1

[17] = system: ABUTH; assay: Post-emergence action against ABUTH; assay type: in vivo, Abutilon theophrasti; conditions: post-emergence, dosage 80 g/ha, visual assessment about 3 weeks after treatment vs untreated controls
Summary of the method: as §3

[18] = system: MATIN; assay: Post-emergence action against MATIN; assay type: in vivo, Matricaria inodora; conditions: post-emergence, dosage 80 g/ha, visual assessment about 3 weeks after treatment vs untreated controls
Summary of the method: as §3

[19] = system: LOLRI; assay: Pre-emergence action against LOLRI; assay type: in vivo, Lolium rigidum; conditions: dosage 320 g/ha, scored visually after 3 weeks vs untreated controls
Text: as §2

[20] = system: AMARE; assay: Post-emergence action against AMARE; assay type: in vivo, Amaranthus retroflexus; conditions: post-emergence, dosage 80 g/ha, visual assessment about 3 weeks after treatment vs untreated controls
Summary of the method: as §3

[21] = system: STEME; assay: Post-emergence action against STEME; assay type: in vivo, Stellaria media; conditions: post-emergence, dosage 80 g/ha
Summary of the method: as §3

[22] = system: CYPES; assay: Pre-emergence action against CYPES; assay type: in vivo, Cyperus esculentus; conditions: pre-emergence, dosage 320 g/ha, scored visually after 3 weeks vs untreated controls
Summary of the method: as §1

[23] = system: AVEFA; assay: Post-emergence action against AVEFA; assay type: in vivo, Avena fatua; conditions: post-emergence, dosage 80 g/ha, visual assessment about 3 weeks after treatment vs untreated controls
Summary of the method: as §3

[24] = system: SETVI; assay: Post-emergence action against SETVI; assay type: in vivo, Setaria viridis; conditions: post-emergence, dosage 80 g/ha, visual assessment about 3 weeks after treatment vs untreated controls
Summary of the method: as §3

Work on CCCC(=O)c1c(C(F)(F)F)ccc(C(=O)Nc2nnnn2C)c1Cl [1-139] yielded a pest or weed control at 320 g/ha ([1]; Viola tricolor, 504 h) of 100%, a pest or weed control at 320 g/ha ([2]; Echinochloa crus-galli, 504 h, read-out: Pre-emergence action against ECHCG (herbicidal activity)) of 100% and a pest or weed control at 320 g/ha ([3]; Hordeum murinum, 504 h) of 90%. It also gave a pest or weed control at 320 g/ha ([4]; Amaranthus retroflexus, 504 h, read-out: Pre-emergence action against AMARE (herbicidal activity)) of 100%, a pest or weed control at 320 g/ha ([5]; Abutilon theophrasti, 504 h, read-out: Pre-emergence action against ABUTH (herbicidal activity)) of 100% and a pest or weed control at 320 g/ha ([6]; Alopecurus myosuroides, 504 h, read-out: Pre-emergence action against ALOMY (herbicidal activity in percent)) of 100%. It also gave a pest or weed control at 320 g/ha ([7]; Setaria viridis, 504 h, read-out: SETVI (Table B8, pre-emergence herbicidal activity)) of 100%, a pest or weed control at 80 g/ha ([8]; Echinochloa crus-galli, 504 h, read-out: Post-emergence action against ECHCG (herbicidal action in percent)) of 90% and a pest or weed control at 80 g/ha [9] of 100%. The pest or weed control at 80 g/ha [10] was 80%, the pest or weed control at 80 g/ha ([11]; Ipomoea purpurea, 504 h) was 100% and the pest or weed control at 320 g/ha [12] was 100%. For the same compound, the pest or weed control at 320 g/ha ([13]; Stellaria media, 504 h) was 100%, the pest or weed control at 320 g/ha ([14]; Tripleurospermum inodorum, 504 h) was 100% and the pest or weed control at 320 g/ha ([15]; Avena fatua, 504 h, read-out: Pre-emergence action against AVEFA (herbicidal activity)) was 100%. It also gave a pest or weed control at 320 g/ha ([16]; Veronica persica, 504 h) of 100%, a pest or weed control at 80 g/ha ([17]; Abutilon theophrasti, 504 h, read-out: Post-emergence action against ABUTH (herbicidal action in percent)) of 90% and a pest or weed control at 80 g/ha ([18]; Tripleurospermum inodorum, 504 h, read-out: Post-emergence action against MATIN (herbicidal action in percent)) of 90%. It also gave a pest or weed control at 320 g/ha ([19]; Lolium rigidum, 504 h, read-out: Pre-emergence action against LOLRI (herbicidal activity)) of 100%, a pest or weed control at 80 g/ha ([20]; Amaranthus retroflexus, 504 h, read-out: Post-emergence action against AMARE (herbicidal action in percent)) of 100% and a pest or weed control at 80 g/ha ([21]; Stellaria media, 504 h) of 100%. The pest or weed control at 320 g/ha ([22]; Cyperus esculentus, 504 h, read-out: Pre-emergence action against CYPES (herbicidal activity)) was 90%.
In the case of Cn1nnnc1NC(=O)c1ccc(C(F)(F)F)c(C(=O)C2(C)CC2)c1Cl [1-147], the “Pre-emergence action against VIOTR” value [1] is reported as 100%, the “Pre-emergence action against ECHCG (herbicidal activity)” value [2] is reported as 100% and the “Pre-emergence action against HORMU” value [3] is reported as 90%. The “Pre-emergence action against AMARE (herbicidal activity)” value [4] was 100%, the “Pre-emergence action against ABUTH (herbicidal activity)” value [5] was 100% and the “Pre-emergence action against ALOMY (herbicidal activity in percent)” value [6] was 100%. For the same compound, the “SETVI (Table B8, pre-emergence herbicidal activity)” value [7] was 100%, the “Post-emergence action against AVEFA (herbicidal action in percent)” value [23] was 100% and the “Post-emergence action against ECHCG (herbicidal action in percent)” value [8] was 100%. The “Post-emergence action against PHBPU” value [11] was 80, the “Pre-emergence action against STEME” value [13] was 100% and the “Pre-emergence action against MATIN” value [14] was 100%. The “Pre-emergence action against AVEFA (herbicidal activity)” value [15] was 90%, the “Pre-emergence action against VERPE” value [16] was 100% and the “Post-emergence action against ABUTH (herbicidal action in percent)” value [17] was 100%. For the same compound, the “Post-emergence action against SETVI (herbicidal action in percent)” value [24] was 100%, the “Post-emergence action against MATIN (herbicidal action in percent)” value [18] was 90% and the “Pre-emergence action against LOLRI (herbicidal activity)” value [19] was 90%. The “Post-emergence action against AMARE (herbicidal action in percent)” value [20] was 100%, the “Post-emergence action against STEME” value [21] was 80 and the “Pre-emergence action against CYPES (herbicidal activity)” value [22] was 100%.
